Source: US20240124389A1, “COMPOUND OR SALT THEREOF, LIPID PARTICLES, AND PHARMACEUTICAL COMPOSITION” (FUJIFILM Corporation, priority 2021, published 2024)

Tests used:
EPO mRNA = experiment: mRNA encapsulation rate of EPO mRNA-encapsulating lipid particles; type: physicochemical; details: lipid/nucleic acid 32 wt/wt
Description: (§1) The compounds described in Table 1, the neutral lipid, cholesterol (product name: Cholesterol HP; NIPPON FINE CHEMICAL CO., LTD.), and 1,2-dimyristoyl-rac-glycero-3-(methylpolyoxyethylene 2000) (hereinafter, called DMG-PEG2000) (product name: SUNBRIGHT® GM-020; NOF corporation) were dissolved in ethanol at a molar ratio in Table 1 such that the total lipid concentration became 20 mmol/L, thereby obtaining an oil phase.
(§2) As the neutral lipid, 1,2-distearoyl-sn-glycero-3-phosphocholine (product name: COATSOME® MC-8080; NOF corporation) (hereinafter, DSPC), or L-α-dioleoyl phosphatidylethanolamine (Hereinafter, DOPE) (product name: COATSOME® ME-8181; NOF corporation), or 1,2-dioleoyl-sn-glycero-3-phosphocholine (hereinafter, DOPC) (product name: COATSOME® MC-8181; NOF corporation) was used.
(§3) EPO mRNA (product name: CleanCap EPO mRNA (5moU); TriLink) was diluted with 50 mmol/L citrate buffer having a pH 4 such that the weight ratio of total lipid concentration to mRNA concentration is about 16:1 to 64:1, thereby obtaining a water phase. Then, the water phase and the oil phase were mixed together using NanoAssemblr (Precision NanoSystems) such that the volume ratio of water phase:oil phase was 3:1, and the mixed solution was 1.5-fold diluted with phosphate buffered saline (PBS), thereby obtaining a dispersion liquid of mRNA lipid particles. The dispersion liquid was dialyzed with a 10% aqueous sucrose solution using a dialysis cassette (Slide-A-Lyzer G2, MWCO: 10 kD, Thermo Fisher Scientific) to remove ethanol, thereby obtaining EPO mRNA-encapsulating lipid particles.
(§4) 15 to 30 μL of a 3 mol/L aqueous sodium acetate solution and 4.5 to 9 μL of glycogen were added to 30 to 60 μL of the lipid particles retaining mRNA, and 0.75 to 1.5 mL of ethanol was added thereto, so that only the nucleic acids were precipitated while the lipid was dissolved. Then, the supernatant was removed by centrifugation. The precipitates were air-dried for 15 minutes or longer, then water was added thereto to redissolve the precipitates, and the concentration thereof was measured using Nanodrop NF1000 (Thermo Fisher Scientific), thereby quantifying the total mRNA concentration.
(§5) The mRNA concentration was quantified using a Quant-iT RiboGreen RNA Assay Kit (Thermo Fisher Scientific) according to the protocol. First, a 20×TE buffer included in the above-described kit was diluted with water, thereby obtaining a 1×TE buffer. TE represents Tris/EDTA (ethylenediaminetetraacetic acid). In order to quantify only mRNA in the outer water phase, the dispersion liquid of lipid particles retaining mRNA was 10,000-fold diluted with the 1×TE buffer. 100 μL of the 10,000-fold diluted dispersion liquid of lipid particles was put into a 96-well plate, then 100 μL of a RiboGreen reagent (reagent included in the Quanti-iT Ribogreen RNA Assay Kit described above) 2,000-fold diluted with the 1×TE buffer was added to a sample, and fluorescence (excitation wavelength: 485 nm, fluorescence wavelength: 535 nm) was measured using a plate reader Infinite F200 (TECAN), thereby quantifying the mRNA concentration in the outer water phase.
(§6) By using the quantification results of the total mRNA concentration and the mRNA concentration in the outer water phase that were obtained through the above steps, the mRNA encapsulation rate of the mRNA lipid particles was calculated according to the following Equation.
(§7) mRNA encapsulation rate (%)=(total mRNA concentration-mRNA concentration in outer water phase)/total mRNA concentration×100

FLuc mRNA [1] = experiment: mRNA encapsulation rate of FLuc mRNA-encapsulating lipid particles; type: physicochemical; details: lipid/nucleic acid 32 wt/wt
FLuc mRNA [2] = experiment: as above; type: physicochemical; details: aminolipid 45 / DOPE 10 / cholesterol 43.5 / DMG-PEG2000 1.5 mol %, lipid/nucleic acid 32 wt/wt
Description: as §1, with “Table 2,” for “Table 1,”, “HP; NTPPON” for “HP; NIPPON”, “DMG-PEG2000)” for “DMG-PEG2000) (product name: SUNBRIGHT® GM-020; NOF corporation)”, “Table 2” for “Table 1”
(§8) As the neutral lipid, 1,2-distearoyl-sn-glycero-3-phosphocholine (product name: COATSOME® MC-8080; NOF corporation) was used in a case of Comparative Example 1, and L-α-dioleoylphosphatidylethanolamine (product name: COATSOME® MC-8181; NOF corporation) was used in a case other than Comparative Example 1.
as §3, with “FLuc” for “EPO”, “(5 moU);” for “(5moU);”, “19:1” for “16:1”, “64:1,” for “64:1, thereby”
as §4, §5, §6, §7

[3] = Particle size of EPO mRNA-encapsulating lipid particles; type: physicochemical; details: lipid/nucleic acid 32 wt/wt
Description: as §1, §2, §3
(§9) The particle size of the mRNA-encapsulating lipid particles was measured by 10-fold diluting the dispersion liquid of lipid particle with phosphate buffered saline (PBS) using Zeta-potential & Particle size Analyzer ELS-Z2 (Otsuka Electronics Co., Ltd.).

[4] = Particle size of FLuc mRNA-encapsulating lipid particles; type: physicochemical; details: lipid/nucleic acid 32 wt/wt
Description: as §1, with “Table 2,” for “Table 1,”, “HP; NTPPON” for “HP; NIPPON”, “DMG-PEG2000)” for “DMG-PEG2000) (product name: SUNBRIGHT® GM-020; NOF corporation)”, “Table 2” for “Table 1”
as §8
as §3, with “FLuc” for “EPO”, “(5 moU);” for “(5moU);”, “19:1” for “16:1”, “64:1,” for “64:1, thereby”
as §9

human EPO = experiment: Measurement of EPO enzyme activity (EPO protein in blood plasma of mice after intravenous administration of EPO mRNA lipid particles); type: in vivo; details: C57BL/6J mice, tail-vein i.v., mRNA 0.1 mg/kg, plasma 20 to 24 hours, lipid/nucleic acid 32 wt/wt
Description: as §1, §2, §3
The dispersion liquid of mRNA lipid particles prepared in above-described <Preparation of EPO mRNA-encapsulating lipid particles> was tail-vein intravenously administered to C57BL/6J mice at a mRNA dosage of 0.1 mg/kg. 20 to 24 hours after the administration, blood was collected from the caudal vena cava, thereby obtaining blood plasma. The human EPO enzyme activity was quantified by using the obtained blood plasma and ab119522 Erythropoietin (EPO) Human Elisa Kit (Abcam.plc). The quantitative value is described as a relative amount of EPO protein in a case where Comparative Example 1 is 1.

[5] = Particle size of FLuc mRNA-encapsulating lipid particles; type: physicochemical; details: aminolipid 45 / DOPC 10 / cholesterol 43.5 / DMG-PEG2000 1.5 mol %, lipid/nucleic acid 32 wt/wt
[6] = aminolipid 45 / DOPC 10 / cholesterol 43.5 / DMG-PEG2000 1.5 mol %
[7] = aminolipid 45 / DOPE 10 / cholesterol 43.5 / DMG-PEG2000 1.5 mol %
[8] = aminolipid 45 / no neutral lipid / cholesterol 53.5 / DMG-PEG2000 1.5 mol %
[9] = aminolipid 45 / neutral lipid — (composition printed 10) / cholesterol 53.5 / DMG-PEG2000 1.5 mol %

Nucleic acid encapsulation rate (EPO mRNA; [6]): 99.2%
Nucleic acid encapsulation rate (EPO mRNA; [7]): 98.8%
Nucleic acid encapsulation rate (EPO mRNA; [8]): 99.2%
Nucleic acid encapsulation rate (FLuc mRNA [1]; [6]): 99.1%
Nucleic acid encapsulation rate (FLuc mRNA [1]; [9]): 99.1%
Nucleic acid encapsulation rate (FLuc mRNA [2]): 100.0%
Particle size [3, 6]: 82.1 nm
Particle size [3, 7]: 115.7 nm
Particle size [3, 8]: 155.2 nm
Particle size [4, 7]: 82.9 nm
Particle size [4, 9]: 164.6 nm
Particle size [5]: 104.3 nm
Structure (SMILES): CCCCCC(CCCCC)COC(=O)CCCC(CCC)OC(=O)OCCN(CCCN(CC)CC)CCOC(=O)OC(CCC)CCCC(=O)OCC(CCCCC)CCCCC (stereo not drawn) [Example 28, Bis(2-pentylheptyl) 11-(3-(diethylamino)propyl)-7,15-dioxo-5,17-dipropyl-6,8,14,16-tetraoxa-11-azahenicosanedi oate]
Relative amount of EPO protein (with respect to Comparative Example 1) (human EPO; [6]): 3.54
Relative amount of EPO protein (with respect to Comparative Example 1) (human EPO; [7]): 1.23
Relative amount of EPO protein (with respect to Comparative Example 1) (human EPO; [8]): 1.47
